How the values were obtained:
[1] = in vivo; conditions: rat, brain/plasma, po, 10 mg/kg
[2] = in vivo; conditions: rat, brain homogenate, po, 10 mg/kg

COc1nc(N2C[C@H]3C(=O)N(C)C(N)=N[C@@]3(c3c(F)ccc(F)c3F)C2)nc(C)c1F
Kp at 6 h [1]: 0.4 | concentration at 6 h [2]: 88 nM

From ChEMBL document CHEMBL3797133, “Structure-Based Design of an Iminoheterocyclic β-Site Amyloid Precursor Protein Cleaving Enzyme (BACE) Inhibitor that Lowers Central Aβ in Nonhuman Primates” (J Med Chem, 2016)
